Laboratory results reported in patent US5955434A, “Gel-forming polypeptide derivatives” (Brigham & Women's Hospital, priority 1996, dated 1999).
Residues, ends and D or L forms follow the SMILES beside them. *: point of attachment. Fmoc = O=C(OCC1c2ccccc2-c2ccccc21)*; Boc = CC(C)(C)OC(=O)*

Experiments:
[1] = Aqueous gel formation of Fmoc-protected peptides; format: physicochemical; conditions: for Gel formed / Gel formed (minimum conc., %): aqueous gels
Protocol: Aqueous gels of the synthesized compounds can be made by several methods which are outlined here and more fully described in the examples.
1. Finely ground dipeptide or tripeptide compound is suspended in boiling water, the mixture is briefly and vigorously mixed or shaken and left to cool. Between 50-60° C. gelation occurrs. This procedure can be repeated to obtain a more homogeneous mixture and a stronger gel.
2. The dipeptide or tripeptide compound is dissolved in a minimal volume of organic solvent which is miscible in water, and at room temperature a small volume of the solution is added to a large volume of water with rapid mixing, after which the gel forms.
3. Methods 1 and 2 can be combined.
(§1) Boil 10 ml water and suspend in it 0.8% finely ground compound 5 of Table 2. Strongly shake or stir the suspension then let stand 10-15 minutes. On cooling the solution becomes turbid at 50-60° C. and at room temperature a gel forms. The gel can be reheated, agitated and recooled. When repeated several times, a stronger gel forms.

rabbits = assay: Immunization of rabbits, antibody titers (double diffusion in agarose gel, reverse radial diffusion, passive hemagglutination); format: in vivo, rabbit; conditions: for production of specific antibodies, injected alone: rabbits, Ada2Me 5 mM, AdaMeC 33 mM
Protocol: (§2) The low molecular weight drugs 3,5-dimethyl-1-adamantanamine hydrochloride (Ada2Me) and 5-methyl-1-adamantanamine 3-carboxylic acid (AdaMeC) can also be incorporated into the Fmoc-Leu-Asp gels (10 mg/ml=21 mM) at concentrations of […] and 33 mM, respectively. At higher total concentrations, (>5 mM Ada2Me or >33 mM AdaMeC) these agents inhibit gelation. […] Fmoc-Leu-Asp alone produced antibodies with titers no greater than 1:4.
Female random-bred rabbits were immunized three times, at weekly intervals and bled on the 24th day. A full dose was used for the first two immunizations, and a half of the full dose for the third immunization. Full doses of the BSA conjugates were 100 μg total protein. Before injections, AdaMeC-BSA and AdaMeC-Bal-BSA solutions were diluted with equal volumes of complete Freund's adjuvant, but AdaMeC+dipeptide gel was diluted with an equal volume of 0.01M phosphate buffer; pH 7.4. The volume of immunogen solutions injected each time was 1 ml. Immune sera were analyzed by two immunoprecipitation assays, the double diffusion in agarose gel and the reverse radial immunodiffusion, as described by Oudin, J. Meth. Enzymol., 70, 166-98 (1980). As shown in FIG. 8A double diffusion in agarose was used to determine the titer of antibodies recognizing AdaMeC-containing conjugates in sera of rabbits immunized with AdaMeC-coupled with or without a beta-alanine (Bal) spacer to BSA in complete Freunds adjuvant or with AdaMeC mixed with Fmoc-Leu-Asp without adjuvant. The antisera were tested against each of the three immunogens and compared to sera of rabbits injected with either AdaMeC or Fmoc-Leu-Asp-alone. And as shown in FIG. 8B the passive hemagglutination test, as described in Adler, F. L. & Adler, L. T., Meth. Enzymol., 70, 455-66 (1980), was used to analyze antisera of rabbits immunized with each of the three AdaMeC conjugates after challenge with the three AdaMeC conjugates, AdaMeC alone or Ada2Me. In the first two assays, the solid phase was 1% agarose containing 0.8% sodium chloride. The sample volumes were 25 μl. The probes were incubated for 72 h at 37° C. […]

[2] = Incorporation of low molecular weight drugs into Fmoc-Leu-Asp gels; format: physicochemical; conditions: Fmoc-Leu-Asp gel 10 mg/ml=21 mM
Protocol: as §2

[3] = methanol and cyclohexane; cited from earlier work
[4] = Gel drying (evaporation of water); format: physicochemical
Protocol: Gels containing either 0.5-0.6% or 0.8% compound 5, gelatin, or starch are disolved in water at 90° C. and briefly cooled. The solutions (0.8 ml) are poured into shallow plastic dishes (17 mm inner diameter). On reaching room temperature, the dishes are weighed and left with desicants but without vacuum to dry. […] After 15 hours, the compound 5 gel has lost 57% of its water, but the gelatine and starch solutions have lost 70% and 87% of their water, respectively.

[5] = Preparation of gels in ethylether; format: physicochemical; conditions: diethylether gel, -5° C.
Protocol: Suspend 150-200 mg finely ground compound 5 of table 2 in 10 mL boiling diethylether. Shake suspension, filter and let sit 30-60 minutes at -5° C. On cooling a gel forms. The peptide concentration can be measured by weighing the gel, and evaporating the solvent in vacuum to a constant weight. In this way a solute concentration of 1-1.2% was found.

[6] = Low strain oscillatory rheology (Rheometrics RFSII); format: physicochemical
Protocol: (triangles.) and 20° C. (circles). Other experimental conditions are as described for FIG. 6B.
Other experimental conditions and symbols are as described for FIG. 6C.
Of particular interest in this invention are the gels formed with Fmoc-Leu-Asp. At concentrations between 1 mg/ml and 1.5 mg/ml solutions of Fmoc-Leu-Asp undergo an abrupt increase in light scattering at both 20° C. and 60° C., as shown in FIG. 6A wherein 1 ml solutions in 1 cm diameter cylindrical cells were measured with a Brookhaven Instruments BI30ATN apparatus using a 633 nm 10 mW laser. When a solution of 2 mg/ml dipeptide is cooled from 100° C. to 60° C., viscoelastic parameters characteristic of a gel are obtained by low strain oscillatory measurements. The storage shear storage modulus, G', a measure of the elastic strength of the material, reaches a stable level of 80 Pa within several minutes (FIG. 6B). These measurements were made using a Rheometrics RFSII instrument1. The maximal shear strain was 1% for oscillatory deformation at a frequency of 1 rad/s. […] NY Acad. Sci. 408, 1-10, (1983) or F-actin, as shown in Janmey P. A. et al., Biochemistry 27, 8218-8227 (1988). […] G', shear storage modulus, depends weakly on frequency from 0.1 to 100 rad/s, and is much larger than the shear loss modulus G" (FIG. 6C). […]

[7] = Solubility in water (Example 2); format: physicochemical
Protocol: as §1
Compound 5 is soluble below 0.8%. At concentrations below 0.4% little or no gel forms. When such a solution is evaporated to 50% volume and then heated and cooled, a gel forms.

[8] = Shear modulus by free oscillations using a torsion pendulum; format: physicochemical
Protocol: From this curve is calculated the shear modulus G^1.
The shear modulus was measured by free oscillations using a torsion pendulum. The theory and description of the method are described in Plazek D., Vrancke., Berge J., Trans. Soc. Rheol. 2, 38-47 (1958); Ferry J. Viscoelastic Properties of Polymers, Wiley New York (1980), and Janmey P., et al., J. Rheol. 27, 135-153 (1993). Gels are formed by method 1 using Tris buffer pH7.4. The peptide concentration in FIG. 1 is 2.5 mg/ml (0.25%). […] This denotes the moderately high elastic strength of this gel.

[9] = chloroform; cited from earlier work

CC[C@H](C)[C@H](NC(=O)OCC1c2ccccc2-c2ccccc21)C(=O)N[C@@H](CC(=O)O)C(=O)O [compound 2, Fmoc--ile--Asp] (Fmoc-Ile-Asp-OH)
Gel formed [1]: Yes | Gel formed (minimum conc., %) [1]: 0.4%

CC12CC3CC(C)(C1)CC(N)(C3)C2.Cl [Ada2Me, 3,5-dimethyl-1-adamantanamine hydrochloride]
production of specific antibodies, injected alone (rabbits): neither Ada2Me (5 mM) nor AdaMeC (33 mM) produced specific antibodies | concentration incorporated into Fmoc-Leu-Asp gels [2]: 1 mM | total concentration that inhibits gelation [2]: > 5 mM

CC12CC3CC(N)(C1)CC(C(=O)O)(C3)C2.Cl (stereo not shown) [AdaMeC, 5-methyl-1-adamantanamine 3-carboxylic acid hydrochloride]
production of specific antibodies, injected alone (rabbits): neither Ada2Me (5 mM) nor AdaMeC (33 mM) produced specific antibodies | concentration incorporated into Fmoc-Leu-Asp gels [2]: 33 mM | total concentration that inhibits gelation [2]: > 33 mM

NC12CC3CC(CC(C3)C1)C2 [adamantamine]
antibody production in rabbits (rabbits; trapped in Fmoc-Leu-Asp gels without additional adjuvant, versus covalently linked to BSA and injected with adjuvant): at least as efficiently

CCCCCCCCCCCCCCCC(=O)c1ccc(OC(=O)[C@H](C)NC(=O)OCc2ccccc2)c([N+](=O)[O-])c1 [N-benzyl-oxycarbonyl L-alanine 4-hexadecanoyl-2nitrophenyl ester]
concentration at which thermally reversible gels form [3]: below 1%

CC(C)C[C@H](NC(=O)OCC1c2ccccc2-c2ccccc21)C(=O)N[C@@H](CC(=O)O)C(=O)O [compound 5, Fmoc--Leu--Asp] (Fmoc-Leu-Asp-OH)
gel formation on cooling ([4]; 0.5-0.6% or 0.8% in water dissolved at 90° C.): forms a gel on cooling | water lost ([4]; after 15 hours, with desicants, without vacuum, room temperature): 57% | solute concentration in the gel [5]: 1-1.2% | storage shear modulus G' ([6]; 2 mg/ml, cooled from 100° C. to 60° C., 1% maximal shear strain, 1 rad/s, stable level within several minutes): 80 Pa | fall of both shear moduli (G', G") on strain, factor ([6]; samples strained to 10%): 100 | gel formation with boric acid ([1]; 0.8% in 3.5% boric acid in boiling water, on cooling): a gel forms | temperature at which the solution becomes turbid on cooling ([1]; 0.8% in boiled water): 50-60 °C | Gel formed [1]: Yes | Gel formed (minimum conc., %) [1]: 0.5% | gel formation in glycerol solution ([1]; solutions of 70% glycerol): forms gels | concentration at which little or no gel forms ([1]; water): below 0.4% | concentration at which soluble in water [7]: below 0.8% | shear modulus ([8]; 2.5 mg/ml (0.25%), Tris buffer pH7.4, gel formed by method 1): 3.1 Pa | saturation concentration ([8]; Tris buffer pH7.4): ~5 mg/mL

CC[C@H](C)[C@H](NC(=O)[C@@H](NC(=O)[C@@H](NC(=O)OC(C)(C)C)C(C)C)C(C)C)C(=O)OC [t-butoxycarbonyl-valyl-valylisoleucine methylester] (Boc-Val-Val-Ile-OMe)
critical micelle concentration [9]: 2.5 mM
